Reference: patent US20120185955A1, “HEDGEHOG INHIBITOR ASSAY” (priority 2005, published 2012)

Assays:
[1] = system: GLI-induced transcription in Sufu−/− MEFs; assay: Substance testing: Hh/Gli reporter 8×GliLuc in Sufu−/− MEFs (inhibition of GLI-induced transcription); type: cell-based, mouse; details: 72 h of treatment
Method: Inhibition of GLI-induced transcription. (A) Sufu^−/− MEFs were transfected with Hh/Gli reporter plasmid 8×GliLuc and a renilla luciferase plasmid for normalisation. Luciferase activity was measured after 72 h of treatment time with the indicated compound.
For the substance testing, Sufu−/− MEF cells are transfected with 8×Gli and phRL-SV40 (or phRL-TK) plasmids using Fugene transfection reagent on larger plates. The day after transfection, cells are replated on suitable microwell plates. When cells reach confluency, substances, which are tested for inhibiting activity, (dissolved in DMSO) are added at a concentration of approximately 10 μM, or any other appropriate concentration. As control, the same volume of only DMSO without test compound is added (reaching a final concentration of e.g. 0.5-2% of DMSO in the cell culture medium) in order to assess solvent-based effects. Cells are lysed approximately 3-4 days later, and luciferase levels are measured using the Dual-Reporter Luciferase system (Promega) or any other suitable method.
Signals were recorded using the Dual Luciferase Kit (Promega) for luciferase measurements and Galacto-Light Plus (Applied Biosystems) for β-Galactosidase measurements.

[2] = system: β-Galactosidase reporter enzyme (pSV40-lacZ); assay: Gli-independent β-Galactosidase construct (pSV40-lacZ) control; type: cell-based
Gli1 = details: HEK293 cells transfected with Gli1 plasmid; 48 h treatment
Method: (§1) Luciferase activity was measured after 72 h of treatment time with the indicated compound. […] (B) Gli1 inhibition, (C) Gli2 inhibition in HEK293 cells. Treatment was for 48 h after transfection of the corresponding Gli plasmid and a Hh/Gli reporter (12×GliBS-Luc) and a renilla luciferase plasmid for normalisation.
(§2) Transfections were done using Fugene (Roche) according to instructions given by the manufacturer.
(§3) Hh reporter assays were performed essentially as described (59, 60). Signals were recorded using the Dual Luciferase Kit (Promega) for luciferase measurements and Galacto-Light Plus (Applied Biosystems) for β-Galactosidase measurements.

Gli2 = details: HEK293 cells transfected with Gli2 plasmid; 48 h treatment
Method: as §1, §2, §3

[3] = system: Gli reporter activity in Sufu−/− MEFs; assay: 8×GliLuc luciferase reporter assay in Sufu−/− MEFs; type: cell-based, mouse
Method: For the luciferase reporter assays, 20,000 MEF cells were seeded into each well of a 24-well plate in MEF medium. The following day, cells were transfected using FuGENE 6 (Roche) with 300 ng of the luciferase reporter plasmids 8×GliLuc and 8×Gli^mutLuc (58) with or without 300 ng of the pMYC-SUFU expression plasmid (9), 300 ng of a constitutively active PKA catalytic subunit expression plasmid (59) or with 300 ng of the TOPflash and FOPflash reporter plasmids (Upstate Biotechnology), together with 50 ng the Renilla luciferase phRL-TK reporter (Promega) to monitor the transfection efficiency. […] The assays were conducted in triplicate and repeated at least three times. The values were normalized to the Renilla reporter before calculating relative levels.

[4] = system: EGFP::Gli1 nuclear export in MEFs; assay: GLI1 subcellular localization in MEFs (EGFP::GLI1, confocal); type: cell-based, mouse; details: Wt, Sufu−/− and Ptch1−/− MEFs; 10 ng/ml Leptomycin B, 3-6 hours
Method: Wt, Sufu^−/− and Ptch1^−/− MEFs (1×10^6 cells) were each transfected with 5 μg of the expression constructs containing GLI1 cDNA fused in frame 3′ of EGFP [EGFP::GLI1, (9)] or with the parental EGFP plasmid alone (BD Biosciences Clontech) in MEF 1 solution using Nucleofector technology, program T-20 (Amaxa Biosystems), and seeded onto slide chambers followed by culturing overnight. Twenty-four hours after transfection, cells were either treated with 10 ng/ml Leptomycin B (Sigma) for 3-6 hours or left untreated, washed in PBS, fixed in 4% PFA, washed in PBS again and incubated with DRAQ5 (Alexis Biochemicals) for visualization of cell nuclei, followed by mounting using ProLong Gold antifade reagent (Invitrogen). Fluorescence was visualized using a Zeiss LSM510 confocal microscope with lasers set at 488 nm for EGFP and at 633 nm for DRAQ5.

CN(C)CCCNc1ccc2c(c1)C(=O)c1ccccc1C2=O [GANT55, 2-(3-Dimethylamino-propylamino)-anthraquinone]
Luciferase signal intensity (8×GliLuc, renilla-normalised) [1]: reduces signal intensity in a dose-dependent manner | Unspecific inhibition of the β-Galactosidase reporter enzyme [2]: not due to unspecific inhibition of the reporter enzyme

CC1=C2C[C@H]3[C@@H](CC=C4C[C@@H](O)CC[C@@]43C)[C@@H]2CC[C@]12O[C@@H]1C[C@H](C)CN[C@H]1[C@H]2C [Cyclopamine]
Luciferase signal intensity (8×GliLuc, renilla-normalised) [1]: ineffective | Gli1 inhibition (12×GliBS-Luc reporter) (Gli1): inactive | Gli2 inhibition (12×GliBS-Luc reporter) (Gli2): inactive

O=S(=O)(NCCNC/C=C/c1ccc(Br)cc1)c1cccc2cnccc12 [H-89]
Effect on the Gli response (8×GliLuc) ([3]; MEFs, 1 μM H-89, one day): no significant effect

CCC(=C/[C@H](C)C/C=C/C(C)=C/[C@@H](C)C(=O)[C@@H](C)[C@H](O)[C@@H](C)C/C(C)=C/C(=O)O)/C=C/[C@@H]1OC(=O)C=C[C@@H]1C [LMB, Leptomycin B]
Subcellular localization of EGFP::Gli1 fusion protein [4]: strong nuclear retention

CNC1CCC(N(Cc2cccc(-c3ccncc3)c2)C(=O)c2sc3ccccc3c2Cl)CC1 (stereo not drawn) [SAG]
Effect on Gli reporter activity (8×GliLuc) ([3]; Sufu−/− MEFs, 10 μM cyclopamine or 100 nM SAG for two days): No further increase in Gli reporter activity

C=C[C@@]1(C)CC(=O)[C@]2(O)[C@@]3(C)[C@@H](O)CCC(C)(C)[C@@H]3[C@H](O)[C@H](OC(C)=O)[C@@]2(C)O1 [forskolin]
inhibition at 100 µM ([3]; Mus musculus, 24 h, Sufu−/− MEFs, 100 μM forskolin, one day, read-out: Inhibition of the Gli-mediated response): ~50%
